This is an account of results in patent US20180185408A1, “ANTIFUNGAL NYLON-3 POLYMERS AND COMBINATION THERAPY USING THEM TO TREAT FUNGAL INFECTIONS” (priority 2016, published 2018).

This test has as its system Cryptococcus neoformans. Briefly: MIC by broth microdilution (CLSI M27-A3). The format is cell-based. The conditions noted are these: Cryptococcus neoformans, Resistance FLU.

For `OC(Cn1cncn1)(Cn1cncn1)c1ccc(F)cc1F` [FLC, fluconazole], the MIC50 (Cryptococcus neoformans CN2) is above 64 µg/mL and the MIC50 (Cryptococcus neoformans CN3) is above 64 µg/mL.
